Results reported in PMC10518257 (Nature Cancer, 2023).
Several values for one entry are separate records, joined by “and”; a condition that tells them apart may be missing. Identical values can stand only once.

What was measured:
[1] = biological target: T1, panel of 255 (vepafestinib) or 256 (all other inhibitors) recombinant kinases (Homo sapiens, UniProt O14757); assay: Kinase selectivity profiling at a single concentration (Carna Biosciences); type: biochemical; conditions: 23 nM
T1 construct: purchased Carna Biosciences
T1 sequence (O14757 whole entry): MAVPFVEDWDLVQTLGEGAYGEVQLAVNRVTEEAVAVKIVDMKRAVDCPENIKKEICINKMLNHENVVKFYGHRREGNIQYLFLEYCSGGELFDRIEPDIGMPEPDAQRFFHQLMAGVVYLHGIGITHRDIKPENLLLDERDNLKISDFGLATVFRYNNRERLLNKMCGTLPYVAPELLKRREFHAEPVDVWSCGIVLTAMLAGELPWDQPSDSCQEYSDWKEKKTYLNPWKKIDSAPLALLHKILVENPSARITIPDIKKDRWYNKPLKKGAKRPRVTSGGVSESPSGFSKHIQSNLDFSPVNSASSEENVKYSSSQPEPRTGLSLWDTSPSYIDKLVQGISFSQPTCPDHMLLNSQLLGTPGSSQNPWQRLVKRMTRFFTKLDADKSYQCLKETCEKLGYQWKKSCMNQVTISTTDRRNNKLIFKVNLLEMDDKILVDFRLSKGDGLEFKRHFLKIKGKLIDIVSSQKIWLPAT

[2] = biological target: T2, panel of 255 (vepafestinib) or 256 (all other inhibitors) recombinant kinases (Homo sapiens, UniProt P35968); assay: as above; type: biochemical; conditions: 23 nM
T2 construct: purchased Carna Biosciences
T2 sequence (P35968 20-1356): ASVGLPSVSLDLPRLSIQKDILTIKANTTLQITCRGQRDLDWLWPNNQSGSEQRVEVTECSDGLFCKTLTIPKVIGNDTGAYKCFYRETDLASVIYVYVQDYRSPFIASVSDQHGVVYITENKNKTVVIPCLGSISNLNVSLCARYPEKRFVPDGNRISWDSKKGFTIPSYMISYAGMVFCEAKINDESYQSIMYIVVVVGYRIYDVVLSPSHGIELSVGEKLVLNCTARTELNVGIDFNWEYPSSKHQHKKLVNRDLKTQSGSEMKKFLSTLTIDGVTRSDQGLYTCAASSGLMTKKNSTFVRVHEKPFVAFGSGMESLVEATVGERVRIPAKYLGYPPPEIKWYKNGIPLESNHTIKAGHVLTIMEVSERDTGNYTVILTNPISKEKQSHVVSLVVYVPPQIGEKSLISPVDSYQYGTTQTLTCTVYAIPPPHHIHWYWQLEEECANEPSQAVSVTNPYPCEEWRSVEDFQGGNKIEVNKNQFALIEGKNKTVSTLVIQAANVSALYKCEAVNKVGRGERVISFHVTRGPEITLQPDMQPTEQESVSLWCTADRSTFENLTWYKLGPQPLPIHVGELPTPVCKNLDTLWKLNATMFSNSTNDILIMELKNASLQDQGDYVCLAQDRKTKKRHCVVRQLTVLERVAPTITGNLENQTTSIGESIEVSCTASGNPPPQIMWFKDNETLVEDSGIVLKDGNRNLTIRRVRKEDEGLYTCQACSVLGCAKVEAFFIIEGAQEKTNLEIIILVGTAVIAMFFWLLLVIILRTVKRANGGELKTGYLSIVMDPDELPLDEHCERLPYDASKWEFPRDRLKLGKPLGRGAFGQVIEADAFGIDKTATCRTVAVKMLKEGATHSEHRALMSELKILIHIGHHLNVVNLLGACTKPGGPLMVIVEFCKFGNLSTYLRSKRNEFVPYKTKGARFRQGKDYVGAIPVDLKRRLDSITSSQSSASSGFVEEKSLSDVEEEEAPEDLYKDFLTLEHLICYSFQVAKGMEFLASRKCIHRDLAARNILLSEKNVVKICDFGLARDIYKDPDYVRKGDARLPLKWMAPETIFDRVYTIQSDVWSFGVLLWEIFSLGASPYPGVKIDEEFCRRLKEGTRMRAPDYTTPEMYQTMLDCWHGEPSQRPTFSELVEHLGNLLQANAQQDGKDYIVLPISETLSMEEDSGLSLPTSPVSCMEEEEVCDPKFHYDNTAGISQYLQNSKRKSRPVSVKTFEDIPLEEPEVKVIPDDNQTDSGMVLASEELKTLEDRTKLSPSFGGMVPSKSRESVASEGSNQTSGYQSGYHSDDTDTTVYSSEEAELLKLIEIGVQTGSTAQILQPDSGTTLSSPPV

[3] = biological target: T3, panel of 255 (vepafestinib) or 256 (all other inhibitors) recombinant kinases (Homo sapiens, UniProt Q06418); assay: as above; type: biochemical; conditions: 23 nM
T3 construct: purchased Carna Biosciences
T3 sequence (Q06418 41-890): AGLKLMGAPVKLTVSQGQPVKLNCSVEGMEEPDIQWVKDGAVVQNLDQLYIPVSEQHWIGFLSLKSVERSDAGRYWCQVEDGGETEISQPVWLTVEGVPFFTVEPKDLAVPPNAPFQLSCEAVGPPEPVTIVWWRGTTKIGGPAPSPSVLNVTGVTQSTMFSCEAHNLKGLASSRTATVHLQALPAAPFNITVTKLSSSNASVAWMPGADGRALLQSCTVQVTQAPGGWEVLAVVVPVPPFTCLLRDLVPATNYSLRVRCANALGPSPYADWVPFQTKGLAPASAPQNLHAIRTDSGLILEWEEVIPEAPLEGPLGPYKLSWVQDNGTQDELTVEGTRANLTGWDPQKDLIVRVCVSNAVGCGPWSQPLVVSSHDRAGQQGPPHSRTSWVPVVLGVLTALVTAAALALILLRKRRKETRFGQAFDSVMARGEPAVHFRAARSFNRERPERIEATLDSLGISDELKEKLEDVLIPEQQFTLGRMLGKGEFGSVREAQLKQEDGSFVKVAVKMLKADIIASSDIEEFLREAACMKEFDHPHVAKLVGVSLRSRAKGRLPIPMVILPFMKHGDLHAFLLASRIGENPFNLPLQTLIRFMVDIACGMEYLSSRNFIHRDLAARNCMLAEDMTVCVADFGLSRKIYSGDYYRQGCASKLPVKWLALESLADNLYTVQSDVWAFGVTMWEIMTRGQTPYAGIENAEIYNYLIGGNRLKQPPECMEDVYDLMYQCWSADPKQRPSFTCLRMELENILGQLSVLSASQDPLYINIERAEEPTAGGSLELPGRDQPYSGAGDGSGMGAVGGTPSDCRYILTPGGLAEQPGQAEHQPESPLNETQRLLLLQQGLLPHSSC

[4] = biological target: T4, panel of 255 (vepafestinib) or 256 (all other inhibitors) recombinant kinases (Homo sapiens, UniProt Q15375); assay: as above; type: biochemical; conditions: 23 nM
T4 construct: purchased Carna Biosciences
T4 sequence (Q15375 28-998): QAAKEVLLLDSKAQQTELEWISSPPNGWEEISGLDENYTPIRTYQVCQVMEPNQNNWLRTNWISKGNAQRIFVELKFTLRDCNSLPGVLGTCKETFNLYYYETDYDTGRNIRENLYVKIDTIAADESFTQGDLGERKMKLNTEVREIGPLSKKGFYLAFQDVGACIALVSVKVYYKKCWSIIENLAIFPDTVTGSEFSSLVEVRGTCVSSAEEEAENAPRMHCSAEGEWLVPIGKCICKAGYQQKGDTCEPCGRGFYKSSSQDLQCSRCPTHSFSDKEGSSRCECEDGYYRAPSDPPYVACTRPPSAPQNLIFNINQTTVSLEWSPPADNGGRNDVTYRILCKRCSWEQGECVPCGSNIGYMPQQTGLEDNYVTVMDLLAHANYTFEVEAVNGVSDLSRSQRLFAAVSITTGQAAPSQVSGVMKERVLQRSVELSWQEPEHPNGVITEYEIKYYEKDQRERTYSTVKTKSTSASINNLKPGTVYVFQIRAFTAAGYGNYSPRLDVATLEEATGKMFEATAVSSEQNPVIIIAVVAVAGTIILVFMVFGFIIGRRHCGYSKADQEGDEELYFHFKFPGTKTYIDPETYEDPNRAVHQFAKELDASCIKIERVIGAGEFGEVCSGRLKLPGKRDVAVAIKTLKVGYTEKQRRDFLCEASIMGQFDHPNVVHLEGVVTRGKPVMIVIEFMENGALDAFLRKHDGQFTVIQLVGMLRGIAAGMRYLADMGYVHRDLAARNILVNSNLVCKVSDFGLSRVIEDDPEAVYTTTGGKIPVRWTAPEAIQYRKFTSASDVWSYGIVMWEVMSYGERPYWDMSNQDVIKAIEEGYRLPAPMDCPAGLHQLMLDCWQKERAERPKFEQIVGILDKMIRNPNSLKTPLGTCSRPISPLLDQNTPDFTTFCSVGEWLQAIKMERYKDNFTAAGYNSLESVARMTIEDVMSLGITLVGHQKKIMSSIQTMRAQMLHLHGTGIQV

[5] = tested on: Ba/F3 cells expressing KIF5B–RET^V804L; assay: Growth inhibition assay in Ba/F3 cells (CellTiter-Glo, 72 h); type: cell-based; conditions: replicate sets
[6] = tested on: Ba/F3 cells expressing KIF5B–RET^V804M; assay: as above; type: cell-based; conditions: replicate sets
[7] = tested on: phosphorylation of RET^G810R, RET^G810S and RET^G810C in Ba/F3 cells; assay: Western blotting of RET phosphorylation in Ba/F3 KIF5B–RET cells; type: cell-based; conditions: 1 h, western blot, 100 nM
MMNK1 cholangiocytes = assay: Growth inhibition (alamarBlue, 96 h); type: cell-based, human; conditions: MMNK, replicates
LC-2/ad NSCLC xenograft = assay: Subcutaneous xenograft efficacy study; type: in vivo, BALB/c nude mice
[8] = tested on: phospho-RET and phospho-ERK in Ba/F3 KIF5B–RET^WT tumors; assay: Western blotting of tumors after a single dose (target engagement); type: in vivo, mice; conditions: single dose 50 mg per kg
LUAD-0057AS1 PDX = assay: PDX efficacy study

With `COCc1ccc(NC(=O)c2c(C#CCN3CCOCC3)n(C3(C)CC3)c3ncnc(N)c23)cc1` [Vepafestinib, 4-amino-N-[4-(methoxymethyl)phenyl]-7-(1-methylcyclopropyl)-6-[3-(morpholin-4-yl)prop-1-yn-1-yl]-7H-pyrrolo[2,3-d]pyrimidine-5-carboxamide] the “% Inhibiton CHK1” value [1] was 11.9%, the “% Inhibiton KDR” value [2] was 36% and the “% Inhibiton TYRO3” value [3] was 8.6%. For the same molecule, the “% Inhibiton EPHA7” value [4] was 10.4%, the GI50 ([5]; Ba/3-KIF5B-RET-V804L) was 0.0214 µM and the GI50 ([5]; Mus musculus, BaF3, Ba/3-KIF5B-RET-V804L) was 0.0259 µM. The GI50 ([6]; Ba/3-KIF5B-RET-V804M) was 0.0387 µM, the GI50 ([6]; Mus musculus, BaF3, Ba/3-KIF5B-RET-V804M) was 0.0448 µM and the “suppression of phosphorylation of RET^G810R, RET^G810S and RET^G810C” value [7] was “near-complete inhibition”. The “raw viability signal (Source Data Fig. 3b-c)” value (shortened to “raw viability signal”) (MMNK1 cholangiocytes; 0.01 nM) was 15390 and 15865.6, the “raw viability signal” value (MMNK1 cholangiocytes; 0.1 nM) was 14815.4 and 16483.3 and the “raw viability signal” value (MMNK1 cholangiocytes; 1 nM) was 13973.1 and 15595. The “raw viability signal” value (MMNK1 cholangiocytes; 10 nM) was 13948.4 and 14647.6, the “raw viability signal” value (MMNK1 cholangiocytes; 100 nM) was 13576.5 and 14248.6 and the “raw viability signal” value (MMNK1 cholangiocytes; 1000 nM) was 9712.9 and 10190.9. For the same molecule, the “raw viability signal” value (MMNK1 cholangiocytes; 10000 nM) was 13883.8 and 13507.1, the “Tumor Volume (mm3) Mean” value (LC-2/ad NSCLC xenograft; 25 mg/kg BID, day 0) was 143.372 mm3 and the “Tumor Volume (mm3) Mean” value (LC-2/ad NSCLC xenograft; 25 mg/kg BID, day 4) was 128.076 mm3. For the same molecule, the “Tumor Volume (mm3) Mean” value (LC-2/ad NSCLC xenograft; 25 mg/kg BID, day 8) was 127.413 mm3, the “Tumor Volume (mm3) Mean” value (LC-2/ad NSCLC xenograft; 25 mg/kg BID, day 11) was 123.160 mm3 and the “Tumor Volume (mm3) Mean” value (LC-2/ad NSCLC xenograft; 25 mg/kg BID, day 15) was 151.811 mm3. The “Tumor Volume (mm3) Mean” value (LC-2/ad NSCLC xenograft; 50 mg/kg BID, day 0) was 140.580 mm3, the “Tumor Volume (mm3) Mean” value (LC-2/ad NSCLC xenograft; 50 mg/kg BID, day 4) was 117.460 mm3 and the “Tumor Volume (mm3) Mean” value (LC-2/ad NSCLC xenograft; 50 mg/kg BID, day 8) was 119.902 mm3. For the same molecule, the “Tumor Volume (mm3) Mean” value (LC-2/ad NSCLC xenograft; 50 mg/kg BID, day 11) was 105.200 mm3, the “Tumor Volume (mm3) Mean” value (LC-2/ad NSCLC xenograft; 50 mg/kg BID, day 15) was 98.169 mm3 and the “Tumor Volume (mm3) Mean” value (LC-2/ad NSCLC xenograft; 50 mg/kg QD, day 0) was 140.683 mm3. For the same molecule, the “Tumor Volume (mm3) Mean” value (LC-2/ad NSCLC xenograft; 50 mg/kg QD, day 4) was 139.893 mm3, the “Tumor Volume (mm3) Mean” value (LC-2/ad NSCLC xenograft; 50 mg/kg QD, day 8) was 112.730 mm3 and the “Tumor Volume (mm3) Mean” value (LC-2/ad NSCLC xenograft; 50 mg/kg QD, day 11) was 118.521 mm3. The “Tumor Volume (mm3) Mean” value (LC-2/ad NSCLC xenograft; 50 mg/kg QD, day 15) was 131.887 mm3, the “duration of complete inhibition of phospho-RET and phospho-ERK in tumors” value [8] was “at least 8 h” and the tumor shrinkage (LUAD-0057AS1 PDX; 50 mg per kg BID) was 44% ± 3%. For the same molecule, the “Area Under Curve of tumor growth, Mean” value (LUAD-0057AS1 PDX; 50 mg/kg BID) was -1274, the Tumor volume (LUAD-0057AS1 PDX; 50 mg/kg BID, day 0, individual animals) was 141.55 mm3 and 150.43 mm3 (2×) and 137.16 mm3 and 152.81 mm3 and 132.84 mm3 and 139.24 mm3 and 143.69 mm3 and the Tumor volume (LUAD-0057AS1 PDX; 50 mg/kg BID, day 3, individual animals) was 107.44 mm3 and 102.07 mm3 (2×) and 103.92 mm3 and 105.68 mm3 (2×) and 109.36 mm3 and 109.21 mm3. For the same molecule, the Tumor volume (LUAD-0057AS1 PDX; 50 mg/kg BID, day 7, individual animals) was 86.78 mm3 and 84.95 mm3 (2×) and 83.53 mm3 and 93.45 mm3 and 76.27 mm3 and 91.61 mm3 and 79.29 mm3, the Tumor volume (LUAD-0057AS1 PDX; 50 mg/kg BID, day 10, individual animals) was 71.99 mm3 and 84.95 mm3 and 77.63 mm3 and 80.7 mm3 (2×) and 69.38 mm3 and 74.9 mm3 and 72.18 mm3 and the Tumor volume (LUAD-0057AS1 PDX; 50 mg/kg BID, day 14, individual animals) was 89.72 mm3 and 88.25 mm3 (2×) and 78.99 mm3 and 76.27 mm3 and 80.7 mm3 and 72.18 mm3. The Tumor volume (LUAD-0057AS1 PDX; 50 mg/kg BID, day 19, individual animals) was 80.35 mm3 and 77.63 mm3 and 73.3 mm3 (2×) and 71.99 mm3 and 88.25 mm3 and 72.18 mm3, the Tumor volume (LUAD-0057AS1 PDX; 50 mg/kg BID, day 23, individual animals) was 80.35 mm3 and 82.12 mm3 and 74.61 mm3 and 73.3 mm3 and 71.99 mm3 and 109.29 mm3 and the “Change in Tumor Volume” value (LUAD-0057AS1 PDX; 50 mg/kg BID, end of study, individual tumors) was -49.1416% and -46.5865% and -45.4098% and -45.6037% and -52.0319% and -45.807% and -21.5096% and -48.8204%. The tumor shrinkage (LUAD-0057AS1 PDX; 100 mg per kg QD) was 48% ± 1%, the “Area Under Curve of tumor growth, Mean” value (LUAD-0057AS1 PDX; 100 mg/kg QD) was -1469 and the Tumor volume (LUAD-0057AS1 PDX; 100 mg/kg QD, day 0, individual animals) was 145.84 mm3 (3×) and 143.69 mm3 and 141.32 mm3 and 152.81 mm3 and 139.24 mm3 and 148.22 mm3. The Tumor volume (LUAD-0057AS1 PDX; 100 mg/kg QD, day 3, individual animals) was 79.29 mm3 and 83.83 mm3 and 80.7 mm3 (2×) and 91.87 mm3 (3×) and 95.24 mm3, the Tumor volume (LUAD-0057AS1 PDX; 100 mg/kg QD, day 7, individual animals) was 71.99 mm3 and 77.87 mm3 and 69.14 mm3 and 72.18 mm3 and 69.38 mm3 and 74.61 mm3 and 80.7 mm3 and 70.69 mm3 and the Tumor volume (LUAD-0057AS1 PDX; 100 mg/kg QD, day 10, individual animals) was 71.99 mm3 and 80.89 mm3 and 66.35 mm3 and 72.18 mm3 and 69.38 mm3 and 74.61 mm3 and 77.87 mm3 and 70.69 mm3. For the same molecule, the Tumor volume (LUAD-0057AS1 PDX; 100 mg/kg QD, day 14, individual animals) was 77.63 mm3 (2×) and 83.83 mm3 and 74.61 mm3 (2×) and 69.38 mm3 and 87.03 mm3 and 75.92 mm3 and the Tumor volume (LUAD-0057AS1 PDX; 100 mg/kg QD, day 19, individual animals) was 68.09 mm3 and 80.7 mm3 and 73.3 mm3 (2×) and 77.63 mm3 and 74.61 mm3 (2×) and 78.99 mm3.
